Laboratory results as given in patent US20040063662A1, “Selenophene anti-tumor agents” (priority 1996, published 2004).

Assays:
HL-60(TB) = experiment: NCI human tumor cell panel: HL-60(TB) (Leukemia); type: cell-based; conditions: Leukemia; for GI50: read-out: Log10 GI50 (converted)
RXF-393 = experiment: NCI human tumor cell panel: RXF-393 (Renal Cancer); type: cell-based; conditions: RXF-393, Renal Cancer; for GI50: read-out: Log10 GI50 (converted); for IC (TGI): read-out: Log10 TGI (converted)
A549/ATCC = experiment: NCI human tumor cell panel: A549/ATCC (Non-Small Cell Lung Cancer); type: cell-based; conditions: Non-Small Cell Lung Cancer; for GI50: read-out: Log10 GI50 (converted); for IC (TGI): read-out: Log10 TGI (converted)
CCRF-CEM = experiment: NCI human tumor cell panel: CCRF-CEM (Leukemia); type: cell-based; conditions: Leukemia; for GI50: read-out: Log10 GI50 (converted); for IC (TGI): read-out: Log10 TGI (converted)
PC-3 = experiment: NCI human tumor cell panel: PC-3 (Prostate Cancer); type: cell-based; conditions: PC-3, Prostate Cancer; for GI50: read-out: Log10 GI50 (converted); for IC (TGI): read-out: Log10 TGI (converted)
SK-MEL-2 = experiment: NCI human tumor cell panel: SK-MEL-2 (Melanoma); type: cell-based; conditions: SK-MEL-2, Melanoma; for GI50: read-out: Log10 GI50 (converted); for IC (TGI): read-out: Log10 TGI (converted)
NCI-H522 = experiment: NCI human tumor cell panel: NCI-H522 (Non-Small Cell Lung Cancer); conditions: for GI50: NCI-H522, read-out: Log10 GI50 (converted); for IC (TGI): NCI-H522, read-out: Log10 TGI
T-47D = experiment: NCI human tumor cell panel: T-47D (Breast Cancer); type: cell-based; conditions: T47D, Breast Cancer; for GI50: read-out: Log10 GI50 (converted); for IC (TGI): read-out: Log10 TGI (converted)
COLO 205 = experiment: NCI human tumor cell panel: COLO 205 (Colon Cancer); type: cell-based; conditions: COLO 205, Colon Cancer; for GI50: read-out: Log10 GI50 (converted); for IC (TGI): read-out: Log10 TGI (converted)
[1] = system: panel of sixty different human tumor cell lines; experiment: NCI human tumor cell panel: whole panel (mean graph summary)
SNB-19 = experiment: NCI human tumor cell panel: SNB-19 (CNS Cancer); type: cell-based; conditions: SNB-19, CNS Cancer; for GI50: read-out: Log10 GI50 (converted); for IC (TGI): read-out: Log10 TGI (converted)
SK-MEL-28 = experiment: NCI human tumor cell panel: SK-MEL-28 (Melanoma); type: cell-based; conditions: SK-MEL-28, Melanoma; for GI50: read-out: Log10 GI50 (converted); for IC (TGI): read-out: Log10 TGI (converted)
SK-MEL-5 = experiment: NCI human tumor cell panel: SK-MEL-5 (Melanoma); type: cell-based; conditions: SK-MEL-5, Melanoma; for GI50: read-out: Log10 GI50 (converted); for IC (TGI): read-out: Log10 TGI (converted)
IGROV1 = experiment: NCI human tumor cell panel: IGROV1 (Ovarian Cancer); type: cell-based; conditions: IGROV-1, IGROV1, Ovarian Cancer; for GI50: read-out: Log10 GI50 (converted); for IC (TGI): read-out: Log10 TGI (converted)
NCI-H23 = experiment: NCI human tumor cell panel: NCI-H23 (Non-Small Cell Lung Cancer); type: cell-based; conditions: NCI-H23, Non-Small Cell Lung Cancer; for GI50: read-out: Log10 GI50 (converted); for IC (TGI): read-out: Log10 TGI (converted)
NCI-H226 = experiment: NCI human tumor cell panel: NCI-H226 (Non-Small Cell Lung Cancer); type: cell-based; conditions: NCI-H226, Non-Small Cell Lung Cancer; for GI50: read-out: Log10 GI50 (converted); for IC (TGI): read-out: Log10 TGI (converted)
A498 = experiment: NCI human tumor cell panel: A498 (Renal Cancer); type: cell-based; conditions: A498, Renal Cancer; for GI50: read-out: Log10 GI50 (converted); for IC (TGI): read-out: Log10 TGI (converted)
SN12C = experiment: NCI human tumor cell panel: SN12C (Renal Cancer); type: cell-based; conditions: Renal Cancer; for GI50: read-out: Log10 GI50 (converted); for IC (TGI): read-out: Log10 TGI (converted)
TK-10 = experiment: NCI human tumor cell panel: TK-10 (Renal Cancer); type: cell-based; conditions: TK-10, Renal Cancer; for GI50: read-out: Log10 GI50 (converted); for IC (TGI): read-out: Log10 TGI (converted)
CAKI-1 = experiment: NCI human tumor cell panel: CAKI-1 (Renal Cancer); type: cell-based; conditions: CAKI-1, Renal Cancer; for GI50: read-out: Log10 GI50 (converted); for IC (TGI): read-out: Log10 TGI (converted)
SF-268 = experiment: NCI human tumor cell panel: SF-268 (CNS Cancer); type: cell-based; conditions: SF-268, CNS Cancer; for GI50: read-out: Log10 GI50 (converted); for IC (TGI): read-out: Log10 TGI (converted)
OVCAR-5 = experiment: NCI human tumor cell panel: OVCAR-5 (Ovarian Cancer); type: cell-based; conditions: OVCAR-5, Ovarian Cancer; for GI50: read-out: Log10 GI50 (converted); for IC (TGI): read-out: Log10 TGI (converted)
786-0 = experiment: NCI human tumor cell panel: 786-0 (Renal Cancer); type: cell-based; conditions: 786-0, Renal Cancer; for GI50: read-out: Log10 GI50 (converted); for IC (TGI): read-out: Log10 TGI (converted)
BT-549 = experiment: NCI human tumor cell panel: BT-549 (Breast Cancer); type: cell-based; conditions: BT-549, Breast Cancer; for GI50: read-out: Log10 GI50 (converted); for IC (TGI): read-out: Log10 TGI (converted)
K-562 = experiment: NCI human tumor cell panel: K-562 (Leukemia); type: cell-based; conditions: K562, K-562, Leukemia; for GI50: read-out: Log10 GI50 (converted); for IC (TGI): read-out: Log10 TGI (converted)
HS 578T = experiment: NCI human tumor cell panel: HS 578T (Breast Cancer); type: cell-based; conditions: Breast Cancer; for GI50: read-out: Log10 GI50 (converted); for IC (TGI): read-out: Log10 TGI (converted)
MCF7/ADR-RES = experiment: NCI human tumor cell panel: MCF7/ADR-RES (Breast Cancer); type: cell-based; conditions: Breast Cancer
MDA-MB-231/ATCC = experiment: NCI human tumor cell panel: MDA-MB-231/ATCC (Breast Cancer); type: cell-based; conditions: Homo sapiens, MDA-MB-231, MDA-MB-231/ATCC, Breast Cancer
[2] = read-out: Log10 GI50 (converted)
[3] = read-out: Log10 TGI (converted)

O=Cc1ccc(-c2ccc(-c3ccc[se]3)[se]2)[se]1 [NSC 675244]
GI50 (HL-60(TB)): 2.45 µM
GI50 (RXF-393): 1.95 µM
IC (TGI) (RXF-393): 8.13 µM
GI50 (A549/ATCC): 13.5 µM
IC (TGI) (A549/ATCC): 26.3 µM
GI50 (CCRF-CEM): 2.14 µM
IC (TGI) (CCRF-CEM): 7.08 µM
GI50 (PC-3): 12 µM
IC (TGI) (PC-3): 32.4 µM
GI50 (SK-MEL-2): 16.6 µM
IC (TGI) (SK-MEL-2): 45.7 µM
GI50 (NCI-H522): 5.25 µM
IC (TGI) (NCI-H522): 17.4 µM
GI50 (T-47D): 11.2 µM
IC (TGI) (T-47D): 23.4 µM
GI50 (COLO 205): 3.16 µM
IC (TGI) (COLO 205): 12 µM
GI50 ([1]; Homo sapiens, read-out: Log10 GI50, cell line not given (converted)): 3.8 µM
CC50 ([1]; Homo sapiens, read-out: Log10 LC50, cell line not given (converted)): > 100 µM
Log10 GI50 ([1]; cell line not given): −5.39
Log10 TGI ([1]; cell line not given): −4.45
GI50 (SNB-19): 10.2 µM
IC (TGI) (SNB-19): 30.2 µM
GI50 (SK-MEL-28): 13.2 µM
IC (TGI) (SK-MEL-28): 26.9 µM
GI50 (SK-MEL-5): 3.39 µM
IC (TGI) (SK-MEL-5): 13.8 µM
GI50 (IGROV1): 3.31 µM
IC (TGI) (IGROV1): 15.5 µM
GI50 (NCI-H23): 13.5 µM
IC (TGI) (NCI-H23): 30.9 µM
GI50 (NCI-H226): 2.24 µM
IC (TGI) (NCI-H226): 5.13 µM
GI50 (A498): 1.41 µM
IC (TGI) (A498): 2.95 µM
GI50 (SN12C): 10 µM
IC (TGI) (SN12C): 22.4 µM
GI50 (TK-10): 0.288 µM
IC (TGI) (TK-10): 0.891 µM
GI50 (CAKI-1): 0.204 µM
IC (TGI) (CAKI-1): 0.708 µM
GI50 (SF-268): 4.47 µM
IC (TGI) (SF-268): 57.5 µM
GI50 (OVCAR-5): 0.55 µM
IC (TGI) (OVCAR-5): 13.2 µM
GI50 (786-0): 6.03 µM
IC (TGI) (786-0): 18.6 µM
GI50 (BT-549): 12.3 µM
IC (TGI) (BT-549): 30.9 µM
GI50 (K-562): 1.35 µM
IC (TGI) (K-562): 33.1 µM
GI50 (HS 578T): 7.24 µM
IC (TGI) (HS 578T): 21.9 µM

O=Cc1ccc(-c2ccc(-c3ccc(C=O)[se]3)[se]2)[se]1 [NSC 675245]
GI50 (HL-60(TB)): > 100 µM
IC (TGI) (HL-60(TB); read-out: Log10 TGI): > 100 µM
GI50 (RXF-393): 12 µM
IC (TGI) (RXF-393): > 100 µM
GI50 (A549/ATCC): > 100 µM
IC (TGI) (A549/ATCC): > 100 µM
GI50 (CCRF-CEM): > 100 µM
IC (TGI) (CCRF-CEM): > 100 µM
GI50 (PC-3): > 100 µM
IC (TGI) (PC-3): > 100 µM
GI50 (SK-MEL-2): > 100 µM
IC (TGI) (SK-MEL-2): > 100 µM
GI50 (NCI-H522): 21.9 µM
IC (TGI) (NCI-H522): 45.7 µM
GI50 (T-47D): 15.8 µM
IC (TGI) (T-47D): > 100 µM
GI50 (MCF7/ADR-RES; [2]): > 100 µM
IC (TGI) (MCF7/ADR-RES; [3]): > 100 µM
GI50 (COLO 205): > 100 µM
IC (TGI) (COLO 205): > 100 µM
GI50 (SNB-19): 29.5 µM
IC (TGI) (SNB-19): > 100 µM
GI50 (SK-MEL-28): > 100 µM
IC (TGI) (SK-MEL-28): > 100 µM
GI50 (SK-MEL-5): 72.4 µM
IC (TGI) (SK-MEL-5): > 100 µM
GI50 (IGROV1): 67.6 µM
IC (TGI) (IGROV1): 25.7 µM
GI50 (MDA-MB-231/ATCC; [2]): > 100 µM
IC (TGI) (MDA-MB-231/ATCC; [3]): > 100 µM
GI50 (NCI-H23): > 100 µM
IC (TGI) (NCI-H23): > 100 µM
GI50 (NCI-H226): 0.977 µM
IC (TGI) (NCI-H226): 3.63 µM
GI50 (A498): 0.309 µM
IC (TGI) (A498): 0.891 µM
GI50 (SN12C): > 100 µM
IC (TGI) (SN12C): > 100 µM
GI50 (TK-10): 0.257 µM
IC (TGI) (TK-10): 0.813 µM
GI50 (CAKI-1): 0.269 µM
IC (TGI) (CAKI-1): 0.933 µM
GI50 (SF-268): > 100 µM
IC (TGI) (SF-268): > 100 µM
GI50 (OVCAR-5): 0.776 µM
IC (TGI) (OVCAR-5): > 100 µM
GI50 (786-0): 67.6 µM
IC (TGI) (786-0): > 100 µM
GI50 (BT-549): > 100 µM
IC (TGI) (BT-549): > 100 µM
GI50 (K-562): 6.76 µM
IC (TGI) (K-562): > 100 µM
GI50 (HS 578T): 87.1 µM
IC (TGI) (HS 578T): > 100 µM
